In patent US4873225A, “1-n-(4-amino-3-fluoro-2-hydroxybutyryl)-kanamycins” (Zaidan Hojin Biseibutsu Kagaku Kenkyu Kai, priority 1987, dated 1989):
In brackets after ≈: the same amount, converted by molar mass. Where two headings read alike, the source gives them in different places.

Experiments:
Experiment in all cases: MIC, standard serial dilution method
Assay type in all cases: cell-based
Bacillus subtilis PCI219 = conditions: PCI219, pH 7, read-out: MIC
Procedure: (§1) Antibacterial activities of each of the abovementioned compounds of the general formula (I) according to this invention were determined by measuring their minimum growth inhibitory concentrations (MIC, mcg/ml) against various bacteria in accordance with a standard serial dilution method. The pH condition of the incubation medium where the MIC data were measured was set at pH 7, unless otherwise specifically indicated. For the sake of comparison, the antibacterial spectra of 1-N-{(S)-4-amino-2-hydroxybutyryl}kanamycin A (i.e., amikacin) and 1-N-{(S)-4-amino-2-hydroxybutyryl}-3,4-dideoxykanamycin B (i.e., habekacin) were also measured in the same manner.

[1] = test system: Corynebacterium bovis 1810; conditions: Corynebacterium bovis, 1810, pH 7; read-out: MIC
Procedure: as §1

Escherichia coli JR 225 = conditions: JR225, pH 7
Procedure: as §1

[2] = test system: Escherichia coli K-12 LA 290 R55; conditions: K12LA290R55, pH 7
Procedure: as §1

[3] = test system: Escherichia coli K-12 ML 1629; conditions: K12ML1629, pH 7, read-out: MIC
Procedure: as §1

Escherichia coli K-12 = conditions: K12, pH 7
Procedure: as §1

[4] = test system: Klebsiella pneumoniae 22 #3038; conditions: pH 7, read-out: MIC
Procedure: as §1

Mycobacterium 607 = conditions: Mycobacterium, 607, pH 7; read-out: MIC
Procedure: as §1

Proteus rettgeri GN 311 = conditions: Providencia rettgeri, GN311, pH 7; read-out: MIC
Procedure: as §1

Providencia sp. Pv 16 = conditions: SP.PV16, pH 7, read-out: MIC
Procedure: as §1

[5] = test system: Pseudomonas aeruginosa A3; conditions: A3, pH 7, read-out: MIC
Procedure: as §1

[6] = test system: Pseudomonas aeruginosa GN 315; conditions: GN315, pH 7
Procedure: as §1

Serratia marcescens = conditions: pH 7, read-out: MIC
Procedure: as §1

[7] = test system: Staphylococcus aureus 209P; conditions: pH 7, read-out: MIC
Procedure: as §1

[8] = test system: Staphylococcus aureus Ap01; conditions: AP01, pH 7, read-out: MIC
Procedure: as §1

Escherichia coli K-12 R5 = conditions: K12R5, pH 7
Procedure: as §1
Infectious diseases by Escherichia coli K-12 R5 tend to increase in recent days. The compounds of this invention are therefore important for the therapeutic treatment of bacterial infections.

[9] = test system: Escherichia coli JR66/W677; conditions: Escherichia coli, read-out: MIC
Procedure: as §1
(§2) (a) The antibacterial activities of the compounds of this invention are not decreased practically even under pH conditions of pH […] as compared to their antibacterial activities under neutral conditions of pH 7.

[10] = test system: Pseudomonas aeruginosa TI 13; conditions: Pseudomonas aeruginosa, read-out: MIC
Procedure: as §1, §2

SMILES	MIC (Bacillus subtilis PCI219) [µg/mL]	MIC [1] [µg/mL]	MIC (Escherichia coli JR 225) [µg/mL]	MIC [2] [µg/mL]	MIC [3] [µg/mL]	MIC (Escherichia coli K-12) [µg/mL]	MIC [4] [µg/mL]	MIC (Mycobacterium 607) [µg/mL]	MIC (Proteus rettgeri GN 311) [µg/mL]	MIC (Providencia sp. Pv 16) [µg/mL]	MIC [5] [µg/mL]	MIC [6] [µg/mL]	MIC (Serratia marcescens) [µg/mL]	MIC [7] [µg/mL]	MIC [8] [µg/mL]	MIC (Escherichia coli K-12 R5) [µg/mL]	MIC ([9]; JR66/W677, pH 7) [µg/mL]	MIC ([9]; JR66/W677, measured at pH 6) [µg/mL]	MIC ([10]; TI13, pH 7) [µg/mL]	MIC ([10]; TI13, measured at pH 6) [µg/mL]
NC[C@@H](F)[C@H](O)C(=O)N[C@@H]1C[C@H](N)[C@@H](O[C@H]2O[C@H](CN)[C@@H](O)C[C@H]2N)[C@H](F)[C@H]1O[C@H]1O[C@H](CO)[C@@H](O)[C@H](N)[C@H]1O [Invention Compound No. 9, 1-N-{(2R,3R)-4-Amino-3-fluoro-2-hydroxybutyryl}-5,3'-dideoxy-5-fluorokanamycin B]	< 0.2	< 0.2	0.2 (≈ 0.34 µM)	0.39 (≈ 0.663 µM)	0.78 (≈ 1.33 µM)	< 0.2	0.78 (≈ 1.33 µM)	1.56 (≈ 2.65 µM)	0.2 (≈ 0.34 µM)	0.78 (≈ 1.33 µM)	0.2 (≈ 0.34 µM)	3.12 (≈ 5.3 µM)	3.12 (≈ 5.3 µM)	0.39 (≈ 0.663 µM)	0.78 (≈ 1.33 µM)	3.12 (≈ 5.3 µM)	0.39 (≈ 0.663 µM)	1.56 (≈ 2.65 µM)	0.78 (≈ 1.33 µM)	3.12 (≈ 5.3 µM)
NC[C@@H](F)[C@H](O)C(=O)N[C@@H]1C[C@H](N)[C@@H](O[C@H]2O[C@H](CN)[C@@H](O)C[C@H]2N)[C@H](O)[C@H]1O[C@H]1O[C@H](CO)[C@@H](O)[C@H](N)[C@H]1O [Invention Compound No. 6, 1-N-{(2R,3R)-4-Amino-3-fluoro-2-hydroxybutyryl}-3'-deoxykanamycin B]	0.2 (≈ 0.341 µM)	0.39 (≈ 0.665 µM)	< 0.2	0.39 (≈ 0.665 µM)	0.78 (≈ 1.33 µM)	< 0.2	1.56 (≈ 2.66 µM)	0.78 (≈ 1.33 µM)	0.39 (≈ 0.665 µM)	0.78 (≈ 1.33 µM)	< 0.2	3.12 (≈ 5.32 µM)	3.12 (≈ 5.32 µM)	0.39 (≈ 0.665 µM)	0.78 (≈ 1.33 µM)	3.12 (≈ 5.32 µM)	0.39 (≈ 0.665 µM)	1.56 (≈ 2.66 µM)	0.78 (≈ 1.33 µM)	3.12 (≈ 5.32 µM)
NC[C@@H](F)[C@H](O)C(=O)N[C@@H]1C[C@H](N)[C@@H](O[C@H]2O[C@H](CN)[C@@H](O)C[C@H]2F)[C@H](O)[C@H]1O[C@H]1O[C@H](CO)[C@@H](O)[C@H](N)[C@H]1O [Invention Compound No. 3, 1-N-{(2R,3R)-4-Amino-3-fluoro-2-hydroxybutyryl}-2',3'-dideoxy-2'-fluorokanamycin A]	0.39 (≈ 0.661 µM)	0.78 (≈ 1.32 µM)	0.39 (≈ 0.661 µM)	0.78 (≈ 1.32 µM)	0.39 (≈ 0.661 µM)	0.2 (≈ 0.339 µM)	0.78 (≈ 1.32 µM)	0.78 (≈ 1.32 µM)	0.78 (≈ 1.32 µM)	0.78 (≈ 1.32 µM)	0.78 (≈ 1.32 µM)	12.5 (≈ 21.2 µM)	1.56 (≈ 2.65 µM)	0.78 (≈ 1.32 µM)	1.56 (≈ 2.65 µM)	6.25 (≈ 10.6 µM)	0.78 (≈ 1.32 µM)	1.56 (≈ 2.65 µM)	3.12 (≈ 5.29 µM)	3.12 (≈ 5.29 µM)
NC[C@@H]1CC[C@@H](N)[C@@H](O[C@H]2[C@H](F)[C@@H](O[C@H]3O[C@H](CO)[C@@H](O)[C@H](N)[C@H]3O)[C@H](NC(=O)[C@@H](O)[C@H](F)CN)C[C@@H]2N)O1 [Invention Compound No. 10, 1-N-{(2R,3R)-4-Amino-3-fluoro-2-hydroxybutyryl}-5,3',4'-trideoxy-5-fluorokanamycin B]	0.2 (≈ 0.349 µM)	< 0.2	< 0.2	0.39 (≈ 0.681 µM)	0.39 (≈ 0.681 µM)	0.2 (≈ 0.349 µM)	0.78 (≈ 1.36 µM)	0.78 (≈ 1.36 µM)	< 0.2	0.78 (≈ 1.36 µM)	< 0.2	3.12 (≈ 5.45 µM)	1.56 (≈ 2.72 µM)	0.39 (≈ 0.681 µM)	0.78 (≈ 1.36 µM)	3.12 (≈ 5.45 µM)	0.39 (≈ 0.681 µM)	1.56 (≈ 2.72 µM)	0.78 (≈ 1.36 µM)	3.12 (≈ 5.45 µM)
